# Reference: patent US20070112175A1, “Determining drug resistance” (Children's Cancer Institute Australia for Medical Research, priority 2003, published 2007)
# Columns and labels:
# CEM/VLB100 cells = assay: Resistance of vinblastine-selected subline CEM/VLB100; format: cell-based, Human; conditions: CEM/VLB100 subline of CCRF-CEM
# Description: (§1) Human T-cell acute lymphoblastic leukaemia cells, CCRF-CEM, and drug resistant sublines, CEM/VCR R (vincristine-selected) and CEM/VLB100 (vinblastine-selected), and CEM/dEpoB 1×, CEM/dEpoB 2×, CEM/dEpoB 4×, CEM/dEpoB 10×(desoxyepothilone B-selected), were maintained in RPMI 1640 containing 10% FCS as suspension cultures. The CEM/VCRR are 22,600-fold and CEM/VLB100 are 6,667-fold resistant to vincristine and vinblastine respectively. Cells were harvested for protein analysis by centrifugation at 1500 rpm for 5 min.
# [1] = system: NIH3T3 mutant γ-actin transfectant cells; assay: Drug resistance clonogenic assay; format: cell-based, mouse; conditions: P<0.05
# Procedure: DNA (1 μg) was transfected into subconfluent NIH3T3 mouse fibroblast cells using the Fugene (Roche) transfection reagent according to the manufacturer's instructions. Stable transfectants were selected in 1 mgm1^−1 G418 for 16 days. Levels of γ-actin expression were determined by immunoblotting as described above.
# The ability of mutant γ-actin to confer resistance to antimicrotubule agents was determined using clonogenic assays with slight modifications. NIH3T3 mutant γ-actin transfectant cells were seeded at 100 cells/well in replicate wells of a 24-well dish containing increasing concentrations of VLB. The media was replaced after 3 days with drug-free DME/10%FCS. After a further 4 days the media was removed and colonies stained with 0.1% crystal violet. The densitometric volume of each well was determined using the Quantity One software package (Biorad) and expressed relative to the respective drug-free control cells. The concentration that kills 50% of cells (ID50) and statistical analyses were then performed. The relative resistance was determined by dividing the ID50 of each γ-actin transfectant cell line with the ID50 of the empty vector cells.
# [2] = system: NIH3T3 mutant γ-actin transfectant cells; assay: Drug treatment and α-tubulin immunofluorescence of microtubules; format: cell-based, mouse; conditions: 10 μM, 30 min
# Procedure: NIH3T3 mutant γ-actin transfectant cells were grown to ˜80% confluency in 4-well chamber slides (Nalge Nunc International, Naperville, Ill.) and treated with either 0.5% DMSO (vehicle control), 10 μM VLB, or 10 μM dEpoB, for 30 min, prior to immunostaining for total α-tubulin using standard methods. Epifluorescence imaging was performed using a Zeiss Axioscope 100 linked to a cooled CCD camera.
# CEM/VCR R cells = assay: Resistance of vincristine-selected subline CEM/VCR R; format: cell-based, Human; conditions: CEM/VCR R subline of CCRF-CEM
# Description: as §1
# [3] = empty vector and wild type γ-actin expressing cells
compound,measurement,setting,value
CC[C@]1(O)C[C@@H]2CN(CCc3c([nH]c4ccccc34)[C@@](C(=O)OC)(c3cc4c(cc3OC)N(C)[C@H]3[C@@](O)(C(=O)OC)[C@H](OC(C)=O)[C@]5(CC)C=CCN6CC[C@]43[C@@H]65)C2)C1 [vinblastine],fold resistant to vinblastine,CEM/VLB100 cells,"6,667 fold"
same,relative resistance (ID50 transfectant / ID50 empty vector),[1]; P98L γ-actin mutant vs empty vector and wildtype γ-actin cells,over 3 fold
same,relative resistance (ID50 transfectant / ID50 empty vector),[1]; V103L γ-actin mutant vs empty vector and wildtype γ-actin cells,over 2 fold
same,effect on cell shape and microtubule network,[2]; [3],marked structural changes
same,effect on cell shape and microtubule network,[2]; mutant γ-actin transfectants,microtubule network remains largely intact
CC[C@]1(O)C[C@H]2CN(CCc3c([nH]c4ccccc34)[C@@](C(=O)OC)(c3cc4c(cc3OC)N(C=O)[C@H]3[C@@](O)(C(=O)OC)[C@H](OC(C)=O)[C@]5(CC)C=CCN6CC[C@]43[C@@H]65)C2)C1 [vincristine],fold resistant to vincristine,CEM/VCR R cells,"22,600 fold"
"C/C1=C/C[C@@H](/C(C)=C/c2csc(C)n2)OC(=O)C[C@H](O)C(C)(C)C(=O)[C@H](C)[C@@H](O)[C@@H](C)CCC1 [dEpoB, Desoxyepothilone B]",effect on cell shape and microtubule network,[2]; [3],marked structural changes
same,effect on cell shape and microtubule network,[2]; mutant γ-actin transfectants,microtubule network remains largely intact
